According to article PMC2698315 (Journal of Chemical Biology, 2008):

Assays:
[1] = test system: Vascular endothelial protein tyrosine phosphatase (VE-PTP); test: Phosphatase inhibition assay; assay type: biochemical; details: 4PL fit, 37 °C, 1 mM substrate, Fig. 3b (quadrant 2)
[2] = target: vaccinia virus VH1-related (VHR) phosphatase (Homo sapiens, UniProt P51452); assay type: biochemical; details: 4PL fit, 37 °C, 5 mM substrate, Fig. 3a (quadrant 3)
Sequence of vaccinia virus VH1-related (VHR) phosphatase (P51452 whole entry): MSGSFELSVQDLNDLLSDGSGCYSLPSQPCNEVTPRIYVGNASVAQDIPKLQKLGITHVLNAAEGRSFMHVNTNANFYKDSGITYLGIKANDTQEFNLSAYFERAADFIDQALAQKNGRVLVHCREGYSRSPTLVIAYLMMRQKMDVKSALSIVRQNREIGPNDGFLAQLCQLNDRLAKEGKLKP

Structure (SMILES) | Hill coefficient [1] | Hill coefficient [2]
O=C(O[C@@H]1Cc2c(O)cc(O)cc2O[C@@H]1c1cc(O)c(O)c(O)c1)c1cc(O)c(O)c(O)c1 [compound 172, Epigallocatechin-3-monogallate] | 0.55 | –
CC(C)(c1ccc(NS(=O)(=O)C(F)(F)F)cc1)c1ccc(C(C)(C)c2ccc(NS(=O)(=O)C(F)(F)F)cc2)cc1 [compound 281, bis(4-trifluoromethylsulfonamidophenyl)-1,4-diisopropylbenzene] | – | 2.7
